Details: 343.15 K, Liquid, Vibrating tube method

CCCCCCC(=O)OCC(COC(=O)CCCCCC)(COC(=O)CCCCCC)COC(=O)CCCCCC [pentaerythritol tetraheptanoate]
Details	mass density [kg/m3]
18415 kPa	953.8
18445 kPa	953.9
18482 kPa	953.8
18513 kPa	954
18540 kPa	953.8
18543 kPa	953.8
18564 kPa	954
18575 kPa	953.9
18587 kPa	953.9
18610 kPa	954
18613 kPa	954
18633 kPa	954
18645 kPa	953.9
18661 kPa	954.1
18683 kPa	953.9
18685 kPa	954.1
18708 kPa	954
18712 kPa	954
18737 kPa	953.9
18761 kPa	954.1
18790 kPa	954
18814 kPa	954
18842 kPa	954
18866 kPa	954.2
18891 kPa	954
18920 kPa	954.3
18944 kPa	954.2
18968 kPa	954.1
18992 kPa	954.2
19022 kPa	954.1
19041 kPa	954.1
19047 kPa	954.2
19065 kPa	954.3
19072 kPa	954.3
19094 kPa	954.3
19102 kPa	954.3
19119 kPa	954.4
19127 kPa	954.3
19144 kPa	954.3
19152 kPa	954.2
19168 kPa	954.4
19178 kPa	954.4
19198 kPa	954.4
19208 kPa	954.3
19224 kPa	954.4
19233 kPa	954.4
19249 kPa	954.4
19259 kPa	954.4
19275 kPa	954.4
19288 kPa	954.4
19314 kPa	954.4
19340 kPa	954.5
19360 kPa	954.5
19391 kPa	954.4
19421 kPa	954.6
19437 kPa	954.6
19446 kPa	954.5
19468 kPa	954.6
19478 kPa	954.4
19493 kPa	954.7
19503 kPa	954.7
19514 kPa	954.7
19534 kPa	954.6
19540 kPa	954.7
19561 kPa	954.5
19577 kPa	954.6
19587 kPa	954.6
19602 kPa	954.6
19618 kPa	954.6
19628 kPa	954.6
19644 kPa	954.5
19660 kPa	954.7
19670 kPa	954.7
19686 kPa	954.8
19697 kPa	954.8
19712 kPa	954.7
19729 kPa	954.7
19756 kPa	954.6
19783 kPa	954.7
19814 kPa	954.6
19842 kPa	954.8
19869 kPa	954.7
19902 kPa	954.8
19926 kPa	954.8
19958 kPa	954.9
19985 kPa	954.9
20013 kPa	954.8
20045 kPa	954.9
20073 kPa	955
20106 kPa	955
20134 kPa	954.9
20162 kPa	954.9
20189 kPa	955
20223 kPa	955
20251 kPa	955.1
20281 kPa	955
20292 kPa	955.2
20310 kPa	955.1
20321 kPa	955.1
20344 kPa	955.1
20350 kPa	955.1
20373 kPa	955.1
20384 kPa	955.1
20401 kPa	955
20412 kPa	955.1
20429 kPa	955.1
20463 kPa	955.2
20492 kPa	955.2
20504 kPa	955.2
20527 kPa	955.3
20555 kPa	955.2
20585 kPa	955.2
20620 kPa	955.3
20649 kPa	955.4
20679 kPa	955.3
20691 kPa	955.3
20708 kPa	955.3
20744 kPa	955.3
20773 kPa	955.5
20781 kPa	955.3
20803 kPa	955.4
20839 kPa	955.3
20869 kPa	955.5
20905 kPa	955.6
20935 kPa	955.4
20965 kPa	955.6
20996 kPa	955.5
21033 kPa	955.5
21064 kPa	955.6
21069 kPa	955.7
21096 kPa	955.6
21102 kPa	955.7
21133 kPa	955.6
21165 kPa	955.6
21196 kPa	955.7
21229 kPa	955.8
21267 kPa	955.7
21295 kPa	955.7
21320 kPa	955.9
21350 kPa	955.8
21376 kPa	955.8
21401 kPa	955.8
21432 kPa	955.8
21456 kPa	955.9
21483 kPa	955.8
21509 kPa	955.8
21540 kPa	955.9
21565 kPa	955.9
21591 kPa	955.9
21622 kPa	956
21647 kPa	956
21678 kPa	955.9
21704 kPa	955.9
21730 kPa	956.1
21760 kPa	956
21786 kPa	956.1
21813 kPa	956.2
21840 kPa	956.1
21872 kPa	956.1
21898 kPa	956.2
21930 kPa	956.1
21956 kPa	956
21983 kPa	956.1
22010 kPa	956.2
22042 kPa	956.2
22069 kPa	956.3
22096 kPa	956.1
22127 kPa	956.3
22129 kPa	956.2
22156 kPa	956.3
22161 kPa	956.2
22190 kPa	956.3
22195 kPa	956.4
22217 kPa	956.2
22244 kPa	956.3
22272 kPa	956.3
22300 kPa	956.3
22332 kPa	956.4
22360 kPa	956.5
22388 kPa	956.4
22421 kPa	956.4
22449 kPa	956.5
22478 kPa	956.4
22512 kPa	956.6
22540 kPa	956.6
22570 kPa	956.6
22599 kPa	956.7
22633 kPa	956.5
22661 kPa	956.6
22690 kPa	956.6
22704 kPa	956.7
22724 kPa	956.6
22740 kPa	956.7
22753 kPa	956.8
22782 kPa	956.6
22817 kPa	956.7
22846 kPa	956.8
22874 kPa	956.6
22910 kPa	956.7
22939 kPa	956.9
22970 kPa	956.7
23000 kPa	956.8
23030 kPa	956.9
23066 kPa	956.9
23095 kPa	956.9
23125 kPa	956.9
23162 kPa	957
23191 kPa	957
23227 kPa	957
23257 kPa	957.1
23288 kPa	957
23318 kPa	957
23355 kPa	957
23387 kPa	957.1
23417 kPa	957.1
23454 kPa	957.1
23484 kPa	957.2
23516 kPa	957.2
23552 kPa	957.1
23584 kPa	957.2
23615 kPa	957.2
23646 kPa	957.2
23681 kPa	957.3

From the NIST ThermoML archive (doi:10.1021/je060271a)
